From US6964952B2, “Therapeutic composition for broad spectrum dermal disease” (Doosan Corporation, priority 2001, dated 2005)

What was measured:
Langerhans cells = experiment: Effect on number of Langerhans cells in skin explant; type: cell-based; conditions: 1% test sample
Procedure: Langerhans cells play a role in mediating immune response of the skin. Treatment of skin disorders related to a hypersensitive immune response can be accomplished by regulating either the number or the antigen-presenting ability of Langerhans cells. To examine the efficacy of sphingolipid long-chain base on the regulation of the number of Langerhans cells, a test was performed as follows. Each skin explant was applied with a 1% test sample containing sphingolipid.

[1] = tested on: full-thickness circular ear wounds; experiment: Wound repair in rabbits (6 mm punch wounds in ears); type: in vivo, New Zealand White rabbits; conditions: rabbit ear wounds; 5, 10, 50 μM, 10 μl every second day; FIG. 3
Procedure: As an experimental animal model, female New Zealand White rabbits (2 kg in body weight) were employed to evaluate the efficacy of phytosphingosine and derivatives thereof on wound healing.
The rabbits were anesthetized with an intramuscular injection of ketamine (3 to 4 mg/kg). After removing hairs and a horny layer (stratum corneum) inside the both ears, 4 full-thickness circular wounds were created in each ear using a 6 mm-punch biopsy. As a control, PBS solution containing 0.1% BSA was applied to the wound regions at an amount of 10 μl every second day. For test groups, a composition comprising lysophosphatidic acid only, a composition comprising sphingolipid long-chain base only, and a composition comprising a combination thereof were applied each at varying concentrations (5 μM, 10 μM and 50 μM) at a volume of 10 μl every second day. The wounds applied with those agents were sealed with Cathreep (Nichiban Co., Japan). On 4th and 8th day after application, the rabbits were sacrificed, and the wound areas were histologically examined.

protein kinase C (PKC) = experiment: Inhibition of protein kinase C in mouse epidermal cell line Pam212; type: cell-based; conditions: Pam212 cells treated at 100 μM and 400 μM; FIG. 6
Procedure: An anti-inflammation effect of the cream composition according to the invention was evaluated by assessing inhibition of protein kinase C (PKC) in mouse epidermal cell line (Pam212). The cultured epidermal cells at 2×10^7 cells/ml were treated with phytosphingosine or derivatives thereof at final concentrations of 100 μM, and 400 μM. After washing with PBS, the cells were disrupted using a homogenizer and centrifuged. The supernatant was passed through a DE52 column to obtain a fraction containing PKC. To measure the amount of activated PKC in the fractions, 5 μl each of a PKC coactivation 5× buffer, PKC activation 5× buffer, PKC biotinylated peptide substrate and ^32P-ATP mixture were added to a tube. For a negative control, 5 μl each of a PKC coactivation 5× buffer, Control 5× buffer, PKC biotinylated peptide substrate and ^32P-ATP mixture were measured. To the tubes were added 5 μl of respective PKC fractions. The reaction was performed at 30° C. for 5 min. After terminating the reaction by adding a 12.5 μl stop solution, a 10 μl aliquot was dropped on a SAM^2™ membrane. The membrane was washed 1× with 2M NaCl for 30 sec, 3× with 2M NaCl for 2 min, 4× with a solution of 1% H3PO4 and 2M NaCl for 2 min, and 2× with distilled water for 30 sec, followed by drying. Radioactivity was measured to examine a PKC inhibition effect.

human skin fibroblasts [2] = experiment: Tracing metabolic pathway in human skin fibroblasts (TLC of lipid extracts); type: in vitro ADME; conditions: 20 μM, 48 hrs
Procedure: Human skin fibroblasts were employed as the cell line for the study. Phytosphingosine, tetraacetyl phytosphingosine, and acetyl phytosphingosine were respectively dissolved in a mixture of ethanol/dodecane, preparing stock solutions at certain concentrations. When the fibroblasts became confluent in 7 cm diameter culture dishes, 20 μM of the respective test samples was added and cultured in a CO2 incubator for 48 hrs. Cells were harvested and treated according to a common extraction method for sphingolipids. Hydrolysis was performed under basic conditions at 37° C. overnight. The samples were passed through a reverse phase column to remove salts. The desalted lipid extracts were subjected to a TLC analysis on Silica gel 60 G plates (Merck, Germany), using chloroform/methanol/concentrated acetic acid (190/9/1) to elute neutral lipids.

human skin fibroblasts [3] = type: cell-based

CCCCCCCCCCCCCC[C@@H](O)[C@@H](O)[C@@H](N)CO [phytosphingosine]
Efficacy on reducing the number of Langerhans cells (comparison) (Langerhans cells): greater than that of tetraacetyl phytosphingosine
Rates of wound healing (%) compared to untreated control group [1]: highly accelerate the rates of wound healing
PKC inhibition effect (protein kinase C (PKC)): excellent PKC inhibition effects

lysophosphatidic acid
Rates of wound healing (%) compared to untreated control group [1]: highly accelerate the rates of wound healing

CCCCCCCCCCCCCC[C@@H](O)[C@@H](O)[C@H](CO)NC(C)=O [N-acetyl phytosphingosine]
PKC inhibition effect (protein kinase C (PKC)): excellent PKC inhibition effects

tetraacetyl phytosphingosine
Metabolic conversion within the cells (human skin fibroblasts [2]): converted to C2-phytoceramide
Cytotoxicity relative to other sphingolipid long-chain bases (human skin fibroblasts [3]): lower cytotoxicity than other sphingolipid long-chain bases
PKC inhibition effect (protein kinase C (PKC)): excellent PKC inhibition effects
